Data reported in patent publication US20240417410A1, “TRICYCLIC COMPOUNDS FOR THE TREATMENT OF CANCER” (Hoffmann-La Roche Inc., priority 2023, published 2024).

Assays:
AGS cells (KRAS G12D) = assay: Cell viability assay (Cell Counting Kit-8, 3-day); type: cell-based, human; details: Homo sapiens, 72 h, 72 hrs incubation
Summary of the method: (§1)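 72-hr compound treatment, 0.5% DMSO final; NCI-H358 seeded 5,000 cells/well, AGS and SW620 2,000 cells/well. Endpoint: CCK-8, 2-hr development, OD450 minus OD650.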

[1] = tested on: NCI-H358 cells (KRAS G12C); assay: Cell viability assay (Cell Counting Kit-8, 3-day); type: cell-based, human; details: Homo sapiens, NCI-H358, 72 h, NCI-H358, 72 hrs incubation
Summary of the method: as §1

SW620 cells (KRAS G12V) = assay: Cell viability assay (Cell Counting Kit-8, 3-day); type: cell-based, human; details: Homo sapiens, SW-620; SW620, 72 hrs incubation
Summary of the method: as §1

KRAS G12C-BRAF complex = KRAS G12C-BRAF complex (Homo sapiens (Human), UniProt P01116+P62937, G12C); assay: KRAS-BRAF with CYPA (500 nM) interaction assay (TR-FRET, Example 136); type: biochemical; details: KRAS G12C-BRAF disruption
[2] = tested on: phosphorylation of ERK, KRAS G12C in NCI-H358 cells; assay: pERK inhibition assay; type: cell-based; details: Homo sapiens, NCI-H358, 4 h
Summary of the method: (§2)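 Phospho-ERK quantified by in-cell ELISA with TMB read-out at OD450 following 4 h compound exposure (final 0.5% DMSO). Cell lines were SW620 (KRAS G12V), AGS (G12D) and NCI-H358 (G12C), grown in RPMI-1640 with 10% FBS. A 4-parameter sigmoidal model gave the IC50.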

[3] = tested on: phosphorylation of ERK, KRAS G12D in AGS cells; assay: pERK inhibition assay; type: cell-based; details: Homo sapiens, AGS, 4 h
Summary of the method: as §2

[4] = tested on: phosphorylation of ERK, KRAS G12V in SW620; assay: pERK inhibition assay; type: cell-based; details: Homo sapiens, SW-620, 4 h, SW620 cells
Summary of the method: as §2

Sequence of KRAS G12C-BRAF complex (P01116-2 other isoform, or with tags, fused parts or gaps G12C): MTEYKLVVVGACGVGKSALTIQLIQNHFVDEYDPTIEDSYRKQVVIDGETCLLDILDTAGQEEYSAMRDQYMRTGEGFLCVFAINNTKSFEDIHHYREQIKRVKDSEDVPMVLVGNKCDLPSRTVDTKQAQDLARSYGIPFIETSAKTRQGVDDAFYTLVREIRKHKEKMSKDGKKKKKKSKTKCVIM
Sequence of KRAS G12C-BRAF complex (P62937 whole entry): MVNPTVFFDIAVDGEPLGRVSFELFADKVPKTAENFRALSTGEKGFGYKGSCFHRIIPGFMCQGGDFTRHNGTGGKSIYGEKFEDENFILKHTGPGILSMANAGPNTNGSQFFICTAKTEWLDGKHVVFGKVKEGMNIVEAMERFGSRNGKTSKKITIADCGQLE

## CO[C@@H](C)c1ncc(N2CCOCC2)cc1-c1c2c3cc(cc4c3n1CCO4)-c1csc(n1)C[C@H](NC(=O)[C@H]1C[C@@H]1c1cccnc1)C(=O)N1CCC[C@H](N1)C(=O)OCC(C)(C)C2 (atropisomer, axis not shown; (M)) [Example 97, (1S,2S)-N-[(7S,13S)-(20M)-20-[2-[(1S)-1-methoxyethyl]-5-morpholino-3-pyridyl]-17,17-dimethyl-8,14-dioxo-15,24-dioxa-4-thia-9,21,30,31-tetrazahexacyclo[23.3.1.12.19,13 019,27 21,26,]hentriaconta-1 (28),2,5 (31), 19,25 (29),26-hexaen-7-yl]-2-(3-pyridyl)cyclopropanecarboxamide]
AGS cells (KRAS G12D)
  IC50: 2.6 nM
[1]
  IC50: 1.9 nM
SW620 cells (KRAS G12V)
  IC50: 0.3 nM
KRAS G12C-BRAF complex
  IC50: 14.4 nM
[2]
  IC50: 0.4 nM
[3]
  IC50: 1.4 nM
[4]
  IC50: 0.3 nM

## CO[C@@H](C)c1ncc(N2CCN(CC(F)(F)F)CC2)cc1-c1c2c3cc(cc4c3n1CCO4)-c1csc(n1)C[C@H](NC(=O)[C@H]1C[C@@H]1c1cccnc1)C(=O)N1CCC[C@H](N1)C(=O)OCC(C)(C)C2 (atropisomer, axis not shown; (M)) [Example 98, (1S,2S)-N-[(7S,13S)-(20M)-20-[2-[(1S)-1-methoxyethyl]-5-[4-(2,2,2-trifluoroethyl)piperazin-1-yl]-3-pyridyl]-17,17-dimethyl-8,14-dioxo-15,24-dioxa-4-thia-9,21,30,31-2,5 9,13 19,27 21,26]hentriaconta-1 (28),2,5 (31),19,25 (29),26-hexaen-tetrazahexacyclo[23.3.1.1″>0.1″>7-yl]-2-(3-pyridyl)cyclopropanecarboxamide]
AGS cells (KRAS G12D)
  IC50: 8.1 nM
[1]
  IC50: 4 nM
SW620 cells (KRAS G12V)
  IC50: 0.6 nM
KRAS G12C-BRAF complex
  IC50: 11.1 nM
[2]
  IC50: 0.9 nM
[3]
  IC50: 4.6 nM
[4]
  IC50: 0.5 nM

## CO[C@@H](C)c1ncc(N2CCN(C)CC2)cc1-c1c2c3cc(cc4c3n1CCC4)-c1csc(n1)C[C@H](NC(=O)[C@H]1C[C@@H]1c1cnccn1)C(=O)N1CCC[C@H](N1)C(=O)OCC(C)(C)C2 (atropisomer, axis not shown; (M)) [Example 99, (1S,2S)-N-[(7S,13S)-(20M)-20-[2-[(1S)-1-methoxyethyl]-5-(4-methylpiperazin-1-yl)-3-pyridyl]-17,17-dimethyl-8,14-dioxo-15-oxa-4-thia-9,21,30,31-tetrazahexacyclo[23.3.1.1^2,5.1^9,13.0^19,27.0^21,26]hentriaconta-1 (28),2,5 (31), 19,25 (29),26-hexaen-7-yl]-2-pyrazin-2-yl-cyclopropanecarboxamide]
AGS cells (KRAS G12D)
  IC50: 7.8 nM
[1]
  IC50: 2.1 nM
SW620 cells (KRAS G12V)
  IC50: 0.4 nM
KRAS G12C-BRAF complex
  IC50: 12.6 nM
[2]
  IC50: 0.5 nM
[3]
  IC50: 1.9 nM
[4]
  IC50: 0.4 nM

## CO[C@@H](C)c1ncc(N2CCN(C)CC2)cc1-c1c2c3cc(cc4c3n1CCCO4)-c1csc(n1)C[C@H](NC(=O)[C@H]1[C@H](C)[C@@H]1C)C(=O)N1CCC[C@H](N1)C(=O)OCC(C)(C)C2 (atropisomer, axis not shown; (M)) [Example 100, (1r,2R,3S)-N-[(7S,13S)-(20M)-20-[2-[(1S)-1-methoxyethyl]-5-(4-methylpiperazin-1-yl)-3-pyridyl]-17,17-dimethyl-8,14-dioxo-15,25-dioxa-4-thia-9,21,31,32-tetrazahexacyclo[24.3.1.1^2,5.1^9,13.0^19,28.0^21,27]dotriaconta-1 (29),2,5 (32),19,26 (30),27-hexaen-7-yl]-2,3-dimethyl-cyclopropanecarboxamide]
AGS cells (KRAS G12D)
  IC50: 8.2 nM
[1]
  IC50: 2.7 nM
SW620 cells (KRAS G12V)
  IC50: 0.7 nM
KRAS G12C-BRAF complex
  IC50: 33.1 nM
[2]
  IC50: 1 nM
[3]
  IC50: 4.1 nM
[4]
  IC50: 0.7 nM

## CO[C@@H](C)c1ncc(N2CCN3CCCC[C@@H]3C2)cc1-c1c2c3cc(cc4c3n1CCC4)-c1csc(n1)C[C@H](NC(=O)[C@H]1[C@H](C)[C@@H]1C)C(=O)N1CCC[C@H](N1)C(=O)OCC(C)(C)C2 (atropisomer, axis not shown; (M)) [Example 101, (1r,2S,3R)-N-[(7S,13S)-(20M)-20-[5-[(9αR)-1,3,4,6,7,8,9,9a-octahydropyrido[1,2-a]pyrazin-2-yl]-2-[(1S)-1-methoxyethyl]-3-pyridyl]-17,17-dimethyl-8,14-dioxo-15-oxa-4-thia-9,21,30,31-tetrazahexacyclo[23.3.1.1^2,5.1^9,13.0^19,27.0^21,26]hentriaconta-1 (28),2,5 (31),19,25 (29),26-hexaen-7-yl]-2,3-dimethyl-cyclopropanecarboxamide]
AGS cells (KRAS G12D)
  IC50: 6.9 nM
[1]
  IC50: 1.8 nM
SW620 cells (KRAS G12V)
  IC50: 0.3 nM
KRAS G12C-BRAF complex
  IC50: 5.4 nM
[2]
  IC50: 0.9 nM
[3]
  IC50: 2.6 nM
[4]
  IC50: 0.2 nM

## CO[C@@H](C)c1ncc(N2CCN3CCCC[C@@H]3C2)cc1-c1c2c3cc(cc4c3n1CCC4)-c1csc(n1)C[C@H](NC(=O)[C@H]1C[C@@H]1c1cccnc1)C(=O)N1CCC[C@H](N1)C(=O)OCC(C)(C)C2 (atropisomer, axis not shown; (M)) [Example 102, (1S,2S)-N-[(7S,13S)-(20M)-20-[5-[(9αR)-1,3,4,6,7,8,9,9a-octahydropyrido[1,2-a]pyrazin-2-yl]-2-[(1S)-1-methoxyethyl]-3-pyridyl]-17,17-dimethyl-8,14-dioxo-15-oxa-4-thia-9,21,30,31-tetrazahexacyclo[23.3.1.1^2,5.1^9,13.0^19,27.0^21,26]hentriaconta-1 (28),2,5 (31),19,25 (29),26-hexaen-7-yl]-2-(3-pyridyl)cyclopropanecarboxamide]
AGS cells (KRAS G12D)
  IC50: 4.9 nM
[1]
  IC50: 1.2 nM
SW620 cells (KRAS G12V)
  IC50: 0.4 nM
KRAS G12C-BRAF complex
  IC50: 6.5 nM
[2]
  IC50: 1.1 nM
[3]
  IC50: 2 nM
[4]
  IC50: 0.7 nM

## CO[C@@H](C)c1ncc(N2CCN3CCCC[C@@H]3C2)cc1-c1c2c3cc(cc4c3n1CCC4)-c1csc(n1)C[C@H](NC(=O)[C@H]1C[C@@H]1c1cncnc1)C(=O)N1CCC[C@H](N1)C(=O)OCC(C)(C)C2 (atropisomer, axis not shown; (M)) [Example 103, (1S,2S)-N-[(7S,13S)-(20M)-20-[5-[(9αR)-1,3,4,6,7,8,9,9a-octahydropyrido[1,2-a]pyrazin-2-yl]-2-[(1S)-1-methoxyethyl]-3-pyridyl]-17,17-dimethyl-8,14-dioxo-15-oxa-4-thia-9,21,30,31-tetrazahexacyclo[23.3.1.1^2,5.1^9,13.0^19,27.0^21,26]hentriaconta-1 (28),2,5 (31),19,25 (29),26-hexaen-7-yl]-2-pyrimidin-5-yl-cyclopropanecarboxamide]
AGS cells (KRAS G12D)
  IC50: 5.2 nM
[1]
  IC50: 1.3 nM
SW620 cells (KRAS G12V)
  IC50: 0.4 nM
KRAS G12C-BRAF complex
  IC50: 6 nM
[2]
  IC50: 0.7 nM
[3]
  IC50: 2.4 nM
[4]
  IC50: 0.7 nM

## CO[C@@H](C)c1ncc(N2CCN3CCOC[C@@H]3C2)cc1-c1c2c3cc(cc4c3n1CCC4)-c1csc(n1)C[C@H](NC(=O)[C@H]1C[C@@H]1c1cccnc1)C(=O)N1CCC[C@H](N1)C(=O)OCC(C)(C)C2 (atropisomer, axis not shown; (M)) [Example 104, (1S,2S)-N-[(7S,13S)-(20M)-20-[5-[(9αS)-3,4,6,7,9,9a-hexahydro-1H-pyrazino[2,1-c][1,4]oxazin-8-yl]-2-[(1S)-1-methoxyethyl]-3-pyridyl]-17,17-dimethyl-8,14-dioxo-15-oxa-4-thia-9,21,30,31-tetrazahexacyclo[23.3.1.1^2,5.1^9,13.0^19,27.0^21,26]hentriaconta-1 (28),2,5 (31),19,25 (29),26-hexaen-7-yl]-2-(3-pyridyl)cyclopropanecarboxamide]
AGS cells (KRAS G12D)
  IC50: 3.8 nM
[1]
  IC50: 0.8 nM
SW620 cells (KRAS G12V)
  IC50: 0.2 nM
KRAS G12C-BRAF complex
  IC50: 9.8 nM
[2]
  IC50: 1 nM
[3]
  IC50: 1.6 nM
[4]
  IC50: 0.4 nM
